From patent US20240002416A1 (Rheinische-Friedrich-Wilhelms-Universität Bonn, priority 2020, published 2024)
Where two headings read alike, the source gives them in different places.

How the values were obtained:
[1] = target: MRGPRX4-83S (Homo sapiens, UniProt Q96LA9, L83S); assay: β-arrestin assay (CHO β-arrestin human MRGPRX4-83S); assay type: cell-based; set-up: host or cells: CHO β-arrestin cells; details: for Emax: efficacy based on 100 nM B-16 (set as 100%), read-out: Emax; for EC50: β-arrestin recruitment, CHO cells, MRGPRX4-83S, read-out: EC50 ± SEM
Protocol: (§1) For β-arrestin recruitment assays, recombinant Chinese hamster ovary (CHO) cells expressing the human MRGPRX4 were used (DiscoverX/Eurofins) which allowed to measure β-galactosidase complementation upon β-arrestin recruitment. For calcium mobilization assays, recombinant astrocytes expressing MRGPX4-83L, or LN229 glioblastoma cells natively expressing the MRGPRX4-83S, were used.
(§2) The assays were performed as previously described for other rhodopsin-like GPCRs (Müller, C.E.; 8-Benzamidochromen-4-one-2-carboxylic acids: potent and selective agonists for the orphan G protein-coupled receptor GPR35. J. Med. Chem. 2013, 56:5182-97; Müller, C.E. Molecular Recognition of Agonists and Antagonists by the Nucleotide-Activated G Protein-Coupled P2Y2 Receptor. J. Med. Chem. 2017, 60:8425-8440).

[2] = target: T1, human MRGPRX4-83L (Homo sapiens, UniProt Q96LA9); assay: β-arrestin assay (CHO β-arrestin ARMS1-ProLink 2 human MRGPRX4 83L); assay type: cell-based; details: for IC50: inhibition of the effect of 2.6 μM B-16; for EC50: β-arrestin recruitment, CHO cells, MRGPRX4-83L, read-out: EC50 ± SEM; for Emax: efficacy based on maximal effect of 100 nM B-16 (set as 100%), read-out: Emax
T1 construct: host or cells: CHO β-arrestin cells
Protocol: as §1, §2

[3] = target: T1, human MRGPRX4-83L; assay: Calcium assay (human MRGPRX4 83L), recombinant astrocytes; assay type: cell-based; details: for EC50: calcium mobilization, MRGPRX4-83L, read-out: EC50 ± SEM; for Emax: efficacy based on maximal effect of 1 μM B-16 (set as 100%), read-out: Emax
Protocol: as §1, §2

[4] = Table 1, means of 3-4 experiments

Sequence of MRGPRX4-83S (Q96LA9 whole entry L83S): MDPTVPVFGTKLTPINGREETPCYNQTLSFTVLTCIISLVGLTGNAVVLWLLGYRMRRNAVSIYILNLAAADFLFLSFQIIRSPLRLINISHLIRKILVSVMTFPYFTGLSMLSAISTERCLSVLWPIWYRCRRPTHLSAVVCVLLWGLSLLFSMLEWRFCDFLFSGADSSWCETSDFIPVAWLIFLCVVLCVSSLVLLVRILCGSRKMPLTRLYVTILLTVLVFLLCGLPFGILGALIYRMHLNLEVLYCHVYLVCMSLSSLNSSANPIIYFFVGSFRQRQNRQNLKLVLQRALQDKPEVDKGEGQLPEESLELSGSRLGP
T1 sequence (Q96LA9 whole entry): as the sequence (Q96LA9 whole entry L83S) above, with S83L counted along it

C#CCn1c(=O)c2c(nc(CCc3ccc(CC)cc3)n2CC2CCCC2)n(CCCCP(=O)(O)O)c1=O [B-42, (4-(7-(cyclopentylmethyl)-8-(4-ethylphenethyl)-2,6-dioxo-1-(prop-2-yn-1-yl)-1,2,6,7-tetrahydro-3H-purin-3-yl)butyl)phosphonic acid]
melting point: 133 to 135 °C
Emax ([1]; Table 3): 92%
EC50 ([1]; Table 3): 0.0125 ± 0.0013 µM

C#CCn1c(=O)c2[nH]c(CCc3ccc(OC)c(OC)c3)nc2n(CCCCP(=O)(O)O)c1=O [B-11, (4-(8-(3,4-Dimethoxyphenethyl)-2,6-dioxo-1-(prop-2-yn-1-yl)-1,2,6,7-tetrahydro-3H-purin-3-yl)butyl)phosphonic acid]
melting point: 254 to 256 °C
IC50 ([2]; Table 1): 50.5 ± 1.4 µM
EC50 [2, 4]: > 10 µM
EC50 ([3]; Table 1): 28 ± 3.3 µM
Emax ([3]; Table 1): 100%
IC50 [1]: 9.72 ± 1.05 µM

CCOP(=O)(CCCCn1c(=O)n(CC)c(=O)c2[nH]c(C3CC3c3ccccc3)nc21)OCC (stereo not drawn) [C-9, Diethyl (4-(1-ethyl-2,6-dioxo-8-(2-phenylcyclopropyl)-1,2,6,7-tetrahydro-3H-purin-3-yl)butyl)phosphonate]
melting point: 124 to 126 °C
IC50 ([2]; Table 1): > 10 µM
EC50 [2, 4]: > 10 µM
IC50 [3]: > 10 µM
EC50 ([3]; Table 1): > 10 µM
EC50 ([1]; Table 2): > 10 µM

C#CCn1c(=O)c2[nH]c(CCc3ccccc3Br)nc2n(CCCCP(=O)(O)O)c1=O [B-8, (4-(8-(2-Bromophenethyl)-2,6-dioxo-1-(prop-2-yn-1-yl)-1,2,6,7-tetrahydro-3H-purin-3-yl)butyl)phosphonic acid]
melting point: 209 to 212 °C
Emax ([2]; Table 1): 98%
EC50 [2, 4]: 0.243 ± 0.045 µM
EC50 ([3]; Table 1): 0.0227 ± 0.0072 µM
Emax ([3]; Table 1): 114%
Emax ([1]; Table 2): 143%
EC50 ([1]; Table 2): 0.00315 ± 0.00082 µM

C#CCn1c(=O)c2[nH]c(CCc3cccc(C)c3)nc2n(CCCCP(=O)(OCC)OCC)c1=O [C-4, Diethyl (4-(8-(3-methylphenethyl)-2,6-dioxo-1-(prop-2-yn-1-yl)-1,2,6,7-tetrahydro-3H-purin-3-yl)butyl)phosphonate]
melting point: 111 to 113 °C
IC50 ([2]; Table 1): > 10 µM
EC50 [2, 4]: > 10 µM
IC50 [3]: > 10 µM
EC50 ([3]; Table 1): > 10 µM
EC50 ([1]; Table 2): > 10 µM

C#CCn1c(=O)c2[nH]c(CCc3ccccc3OC)nc2n(CCCCP(=O)(OCC)OCC)c1=O [C-1, Diethyl (4-(8-(2-Methoxyphenethyl)-2,6-dioxo-1-(prop-2-yn-1-yl)-1,2,6,7-tetrahydro-3H-purin-3-yl)butyl)phosphonate]
melting point: 104 to 106 °C
IC50 ([2]; Table 1): > 10 µM
EC50 [2, 4]: > 10 µM
IC50 [3]: > 10 µM
EC50 ([3]; Table 1): > 10 µM
EC50 ([1]; Table 2): > 10 µM

C#CCn1c(=O)c2[nH]c(CCc3ccc(-c4ccccc4)cc3)nc2n(CCCCP(=O)(O)O)c1=O [B-27, (4-(8-(2-([1,1′-Biphenyl]-4-yl)ethyl)-2,6-dioxo-1-(prop-2-yn-1-yl)-1,2,6,7-tetrahydro-3H-purin-3-yl)butyl)phosphonic acid]
melting point: 212 to 214 °C
Emax ([1]; Table 3): 68%
EC50 ([1]; Table 3): 0.0367 ± 0.0028 µM

C#CCn1c(=O)c2[nH]c(CCc3ccccc3OC)nc2n(CCCCC(=O)O)c1=O [G-1, 5-(8-(2-Methoxyphenethyl)-2,6-dioxo-1-(prop-2-yn-1-yl)-1,2,6,7-tetrahydro-3H-purin-3-yl)pentanoic acid]
melting point: 196 to 198 °C
IC50 ([2]; Table 1): > 10 µM
EC50 [2, 4]: > 10 µM
IC50 [3]: > 10 µM
EC50 ([3]; Table 1): > 10 µM
EC50 ([1]; Table 2): > 10 µM

C#CCn1c(=O)c2[nH]c(CCc3ccccc3Cl)nc2n(CCCCP(=O)(O)O)c1=O [B-9, (4-(8-(2-Chlorophenethyl)-2,6-dioxo-1-(prop-2-yn-1-yl)-1,2,6,7-tetrahydro-3H-purin-3-yl)butyl)phosphonic acid]
melting point: 207 to 209 °C
Emax ([2]; Table 1): 107%
EC50 [2, 4]: 1.26 ± 0.27 µM
EC50 ([3]; Table 1): 0.0552 ± 0.0017 µM
Emax ([3]; Table 1): 107%
Emax ([1]; Table 2): 116%
EC50 ([1]; Table 2): 0.00345 ± 0.00028 µM

O=C(O)CCCCn1c(=O)n(CC2CCC2)c(=O)c2[nH]c(CCc3cccc(C(F)(F)F)c3)nc21 [G-2, 5-(1-(Cyclobutylmethyl)-2,6-dioxo-8-(3-(trifluoromethyl)phenethyl)-1,2,6,7-tetrahydro-3H-purin-3-yl)pentanoic acid]
melting point: 210 to 212 °C
IC50 ([2]; Table 1): > 10 µM
EC50 [2, 4]: > 10 µM
IC50 [3]: > 10 µM
EC50 ([3]; Table 1): > 10 µM
EC50 ([1]; Table 2): > 10 µM

C#CCn1c(=O)c2c(nc(CCc3ccccc3OC)n2C)n(CCCCP(=O)(OCC)OCC)c1=O [C-2, Diethyl (4-(8-(2-methoxyphenethyl)-7-methyl-2,6-dioxo-1-(prop-2-yn-1-yl)-1,2,6,7-tetrahydro-3H-purin-3-yl)butyl)phosphonate]
melting point: 124 to 146 °C
IC50 ([2]; Table 1): > 10 µM
EC50 [2, 4]: > 10 µM
IC50 [3]: > 10 µM
EC50 ([3]; Table 1): > 10 µM
EC50 ([1]; Table 2): > 10 µM

CCOP(=O)(CCCCn1c(=O)n(CC2CCC2)c(=O)c2[nH]c(CCc3cccc(OC)c3)nc21)OCC [C-7, Diethyl (4-(1-(cyclobutylmethyl)-8-(3-methoxyphenethyl)-2,6-dioxo-1,2,6,7-tetrahydro-3H-purin-3-yl)butyl)phosphonate]
melting point: 82 to 84 °C
IC50 ([2]; Table 1): > 10 µM
EC50 [2, 4]: > 10 µM
IC50 [3]: > 10 µM
EC50 ([3]; Table 1): > 10 µM
EC50 ([1]; Table 2): > 10 µM

C#CCn1c(=O)c2c(nc(CCc3ccccc3Br)n2CC2CCCC2)n(CCCCP(=O)(O)O)c1=O [B-37, (4-(8-(2-Bromophenethyl)-7-(cyclopentylmethyl)-2,6-dioxo-1-(prop-2-yn-1-yl)-1,2,6,7-tetrahydro-3H-purin-3-yl)butyl)phosphonic acid]
melting point: 137 to 139 °C
Emax ([2]; Table 4): 87%
EC50 ([2]; Table 4): 0.169 ± 0.023 µM
EC50 ([3]; Table 4): 0.0892 ± 0.0255 µM
Emax ([3]; Table 4): 84%

C#CCn1c(=O)c2c(nc(CCc3ccccc3Br)n2CC)n(CCCCCCP(=O)(O)O)c1=O [B-57, (6-(8-(2-Bromophenethyl)-7-ethyl-2,6-dioxo-1-(prop-2-yn-1-yl)-1,2,6,7-tetrahydro-3H-purin-3-yl)hexyl)phosphonic acid]
melting point: 223 to 225 °C
Emax ([2]; Table 4): 97%
EC50 ([2]; Table 4): 0.766 ± 0.357 µM
EC50 ([3]; Table 4): 0.474 ± 0.152 µM
Emax ([3]; Table 4): 98%

C#CCn1c(=O)c2c(nc(CCc3ccc(Br)cc3)n2C)n(CCCCP(=O)(O)O)c1=O [B-29, (4-(8-(4-Bromophenethyl)-7-methyl-2,6-dioxo-1-(prop-2-yn-1-yl)-1,2,6,7-tetrahydro-3H-purin-3-yl)butyl)phosphonic acid]
melting point: 227 to 229 °C
Emax ([2]; Table 4): 100%
EC50 ([2]; Table 4): 2.44 ± 0.75 µM
EC50 ([3]; Table 4): 0.134 ± 0.013 µM
Emax ([3]; Table 4): 45%

C#CCn1c(=O)c2[nH]c(CCc3ccccc3Br)nc2n(CCCCCCP(=O)(O)O)c1=O [B-55, (6-(8-(2-Bromophenethyl)-2,6-dioxo-1-(prop-2-yn-1-yl)-1,2,6,7-tetrahydro-3H-purin-3-yl)hexyl)phosphonic acid]
melting point: 225 to 227 °C
Emax ([2]; Table 4): 98%
EC50 ([2]; Table 4): 0.857 ± 0.22 µM
EC50 ([3]; Table 4): 0.0578 ± 0.0189 µM
Emax ([3]; Table 4): 94%

C#CCn1c(=O)c2c(nc(CCc3ccccc3Br)n2C)n(CCCCCCP(=O)(O)O)c1=O [B-56, (6-(8-(2-Bromophenethyl)-7-methyl-2,6-dioxo-1-(prop-2-yn-1-yl)-1,2,6,7-tetrahydro-3H-purin-3-yl)hexyl)phosphonic acid]
melting point: 221 to 223 °C
Emax ([2]; Table 4): 91%
EC50 ([2]; Table 4): 0.576 ± 0.083 µM
EC50 ([3]; Table 4): 0.0578 ± 0.0189 µM
Emax ([3]; Table 4): 102%
